Assay results from article PMC12169847, “Targeted protein degradation by KLHDC2 ligands identified by high-throughput screening” (eLife, 2025).
“And” between values parts separate entries of the source, which are not always exact repeats. Identical values can stand only once.

Tests used:
GST-tagged KLHDC2 = molecular target: T1, GST-tagged KLHDC2 (Homo sapiens, UniProt Q9Y2U9); test: Fluorescence polarization competition assay, KLHDC2 with TAMRA-SelK peptide (384-well); conditions: for Fluorescence polarization signal: KLHDC2, replicate wells
T1 sequence (Q9Y2U9 1-362): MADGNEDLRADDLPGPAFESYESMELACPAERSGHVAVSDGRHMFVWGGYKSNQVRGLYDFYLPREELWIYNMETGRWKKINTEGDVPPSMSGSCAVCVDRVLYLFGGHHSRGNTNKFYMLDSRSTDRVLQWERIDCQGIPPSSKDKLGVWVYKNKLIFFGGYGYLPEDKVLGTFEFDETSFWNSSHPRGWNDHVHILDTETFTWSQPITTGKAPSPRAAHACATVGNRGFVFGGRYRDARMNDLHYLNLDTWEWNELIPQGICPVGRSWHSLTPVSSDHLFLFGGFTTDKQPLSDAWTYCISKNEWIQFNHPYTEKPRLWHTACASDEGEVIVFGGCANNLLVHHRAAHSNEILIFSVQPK

KLHDC2 [1] = molecular target: T2, KLHDC2 (Homo sapiens, UniProt Q9Y2U9); test: Surface plasmon resonance direct binding to immobilized KLHDC2; conditions: read-out: KLHDC2 Kd (SPR)
T2 sequence (Q9Y2U9 1-362): T1 sequence (Q9Y2U9 1-362)

KEAP1 Kelch domain = molecular target: T3, KEAP1 Kelch domain (Homo sapiens, UniProt Q14145); test: Fluorescence polarization counter-screen, KEAP1 with TAMRA-NRF2 peptide; format: binding; conditions: for Fluorescence polarization signal: KEAP1, replicate wells; for inhibitory effect in the KEAP1 counter-screening assay: concentrations less than 20 µM; for EC50: in figure
T3 construct: HIS6 (N); made in house; host or cells: Escherichia coli BL21(DE3)
T3 sequence (Q14145 321-609 limits assumed): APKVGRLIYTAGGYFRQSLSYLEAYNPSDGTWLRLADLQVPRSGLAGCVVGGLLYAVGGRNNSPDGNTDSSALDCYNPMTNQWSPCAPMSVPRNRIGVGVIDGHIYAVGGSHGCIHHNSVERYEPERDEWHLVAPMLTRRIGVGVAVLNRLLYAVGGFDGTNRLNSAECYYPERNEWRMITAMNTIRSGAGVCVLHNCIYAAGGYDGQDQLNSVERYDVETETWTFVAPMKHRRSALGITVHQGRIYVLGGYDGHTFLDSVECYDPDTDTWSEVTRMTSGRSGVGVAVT

SelK (Homo sapiens) = SelK (Homo sapiens) (UniProt Q9Y6D0); conditions: cited from earlier work
Chain of SelK (Homo sapiens) (Q9Y6D0 2-94): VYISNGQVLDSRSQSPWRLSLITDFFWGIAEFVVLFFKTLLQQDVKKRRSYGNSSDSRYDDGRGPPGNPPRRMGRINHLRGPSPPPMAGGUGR

KLHDC2 [2] = molecular target: KLHDC2; parameters: method as in Rusnac et al., 2018; conditions: ref Rusnac et al., 2018; read-out: dissociation constant, reported literature value; cited from earlier work

Chain of KLHDC2 (from UniProt Q9Y2U9) (Q9Y2U9 whole entry): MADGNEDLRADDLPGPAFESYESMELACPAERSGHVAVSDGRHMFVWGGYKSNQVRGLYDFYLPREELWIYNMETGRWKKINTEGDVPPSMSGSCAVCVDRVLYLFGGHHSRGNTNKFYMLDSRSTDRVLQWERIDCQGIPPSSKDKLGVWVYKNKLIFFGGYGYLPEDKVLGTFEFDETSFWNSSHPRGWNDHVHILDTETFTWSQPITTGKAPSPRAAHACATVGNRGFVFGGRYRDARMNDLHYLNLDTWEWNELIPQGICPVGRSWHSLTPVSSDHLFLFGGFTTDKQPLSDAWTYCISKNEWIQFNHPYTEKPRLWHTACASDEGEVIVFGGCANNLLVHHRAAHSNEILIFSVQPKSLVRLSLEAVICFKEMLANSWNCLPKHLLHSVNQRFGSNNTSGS

| Compound | EC50 (GST-tagged KLHDC2) | IC50 (GST-tagged KLHDC2) | Fluorescence polarization signal (GST-tagged KLHDC2; 0.169351 nM) | Fluorescence polarization signal (GST-tagged KLHDC2; 0.508053 nM) | Fluorescence polarization signal (GST-tagged KLHDC2; 1.52416 nM) | Fluorescence polarization signal (GST-tagged KLHDC2; 4.57247 nM) | Fluorescence polarization signal (GST-tagged KLHDC2; 13.7174 nM) | Fluorescence polarization signal (GST-tagged KLHDC2; 41.1523 nM) | Fluorescence polarization signal (GST-tagged KLHDC2; 123.457 nM) | Fluorescence polarization signal (GST-tagged KLHDC2; 370.37 nM) | Fluorescence polarization signal (GST-tagged KLHDC2; 1111.11 nM) | Fluorescence polarization signal (GST-tagged KLHDC2; 3333.33 nM) | Fluorescence polarization signal (GST-tagged KLHDC2; 10000 nM) | Kd (KLHDC2 [1]) | Fluorescence polarization signal (KEAP1 Kelch domain; 0.169351 nM) | Fluorescence polarization signal (KEAP1 Kelch domain; 0.508053 nM) | Fluorescence polarization signal (KEAP1 Kelch domain; 1.52416 nM) | Fluorescence polarization signal (KEAP1 Kelch domain; 4.57247 nM) | Fluorescence polarization signal (KEAP1 Kelch domain; 13.7174 nM) | Fluorescence polarization signal (KEAP1 Kelch domain; 41.1523 nM) | other results |
| --- | --- | --- | --- | --- | --- | --- | --- | --- | --- | --- | --- | --- | --- | --- | --- | --- | --- | --- | --- | --- | --- |
| COc1ccc(C2CC(c3cccc(F)c3)Nc3c(C(=O)O)cc(Br)cc32)cc1OC (centres unmarked) [compound 1] | 2500 nM | 2500 nM | 0.6958 and 5.527 and -6.154 | 0.1958 and 5.927 and -4.854 | -13.1042 and -0.4734 and -3.754 | 1.996 and -1.273 and -4.954 | 2.396 and 3.527 and -0.6542 | 2.696 and 0.3828 and -2.854 | -3.504 and -5.782 and -9.454 | -4.604 and 3.827 and -2.854 | -13.7042 and -3.373 and -3.854 | -18.1042 and -20.4734 and -17.5543 | -16.9042 and -31.6734 and -31.9543 | 810 nM and 809 nM | 15.2 and 20.2 and 9.533 | 11.1 and 15.1 and 18.7 | 20.7 and 19.8 (2×) | 27.1 and 18.2 and 28.2 | 24.4 and 19.1 and 17 | 12.2 and 19.5 and 19.8 | Fluorescence polarization signal (KEAP1 Kelch domain; 123.457 nM): 21.2 and 18.9 and 16.3; Fluorescence polarization signal (KEAP1 Kelch domain; 370.37 nM): 24.1 and 16.2 and 17.6; Fluorescence polarization signal (KEAP1 Kelch domain; 1111.11 nM): 21.2 and 15.6 and 17.3; Fluorescence polarization signal (KEAP1 Kelch domain; 3333.33 nM): 8.697 and 21.8 and 19.7; Fluorescence polarization signal (KEAP1 Kelch domain; 10000 nM): 14.9 and 22.1 and 19.3; inhibitory effect in the KEAP1 counter-screening assay (KEAP1 Kelch domain): did not have an inhibitory effect; EC50 (KEAP1 Kelch domain): > 20000 nM |
| Cc1ccc(C)c(C2Nc3c(C(=O)O)cc(Cl)cc3C3C4CCC(C4)C23)c1 (centres unmarked) [compound 2] | 1270 nM | 1300 nM | -6.704 and 3.427 and -1.254 | -10.2042 and 5.927 and -5.854 | -0.3042 and -6.173 and -5.554 | 3.896 and 7.124 and -7.354 | 2.496 and 7.927 and -2.554 | 1.996 and 10.1266 and 8.192 | -3.304 and -7.673 and -6.554 | -2.804 and -8.673 and -1.254 | -10.1042 and -12.1734 and -2.854 | -28.2042 and -24.2734 and -28.2543 | -26.0042 and -23.7734 and -24.4543 | 440 nM and 443 nM | 14.7 and 20.2 and 14.4 | 10.4 and 15.1 and 11.1 | 17 and 19.8 and 20.3 | 20.3 and 18.2 and 19.6 | 18.8 and 19.1 and 18 | 21.6 and 19.5 and 32 | Fluorescence polarization signal (KEAP1 Kelch domain; 123.457 nM): 24.5 and 18.9 and 12.1; Fluorescence polarization signal (KEAP1 Kelch domain; 370.37 nM): 22.6 and 16.2 and 24.9; Fluorescence polarization signal (KEAP1 Kelch domain; 1111.11 nM): 20.2 and 15.6 and 21; Fluorescence polarization signal (KEAP1 Kelch domain; 3333.33 nM): 14.8 and 21.8 and 27; Fluorescence polarization signal (KEAP1 Kelch domain; 10000 nM): 17.3 and 22.1 and 15.2; inhibitory effect in the KEAP1 counter-screening assay (KEAP1 Kelch domain): did not have an inhibitory effect; EC50 (KEAP1 Kelch domain): > 20000 nM |
| O=C(O)c1cc(Cl)cc2c1NC(c1cccc(C(F)(F)F)c1)C1C3CCC(C3)C21 (centres unmarked) [compound 5] | 760 nM | 760 nM | -4 and 1 and 6 | -11.1 and -2.3 and 1 | -1.4 and 2 and 0 | 1 (2×) and -8.1 | 1 and -4 and 0 | 1 and -1.4 and -5.1 | 0 and -2.6 and -8.8 | -30.6 and -31 and -24.7 | -67.8 and -66.2 and -52.8 | -93.4 and -88.4 and -82.2 | -84.4 and -101.233 and -107.845 | 380 nM and 379 nM | 20 and 24 and 25 | 22 and 20 and 32 | 29 and 21 and 41 | 16 and 24 and 43 | 24 (2×) and 27 | 20 and 18 and 26 | Fluorescence polarization signal (KEAP1 Kelch domain; 123.457 nM): 20 and 35 and 31; Fluorescence polarization signal (KEAP1 Kelch domain; 370.37 nM): 31 and 22 and 25; Fluorescence polarization signal (KEAP1 Kelch domain; 1111.11 nM): 25 and 23 and 18; Fluorescence polarization signal (KEAP1 Kelch domain; 3333.33 nM): 15 and 26 and 34; Fluorescence polarization signal (KEAP1 Kelch domain; 10000 nM): 31 and 14 and 27; inhibitory effect in the KEAP1 counter-screening assay (KEAP1 Kelch domain): no inhibitory effect; EC50 (KEAP1 Kelch domain): > 20000 nM |
| KLHDC2 (from UniProt Q9Y2U9) |  |  |  |  |  |  |  |  |  |  |  |  |  |  |  |  |  |  |  |  | Kd (SelK (Homo sapiens)): 3.4 nM |
| SelK: client protein of KLHDC2 with C-terminal diglycine degron |  |  |  |  |  |  |  |  |  |  |  |  |  |  |  |  |  |  |  |  | Kd (KLHDC2 [2]): < 10 nM |
